Reference: ChEMBL document CHEMBL1146654, “3-(7-Azaindolyl)-4-arylmaleimides as potent, selective inhibitors of glycogen synthase kinase-3” (Bioorg Med Chem Lett, 2004)

How the values were obtained:
[1] = target: T1, Mitogen-activated protein kinase 13 (Homo sapiens) (UniProt O15264); experiment: Inhibition of Stress activated protein kinase 4; design: scale not given: the % may be the effect or the level left
T1 sequence (whole entry): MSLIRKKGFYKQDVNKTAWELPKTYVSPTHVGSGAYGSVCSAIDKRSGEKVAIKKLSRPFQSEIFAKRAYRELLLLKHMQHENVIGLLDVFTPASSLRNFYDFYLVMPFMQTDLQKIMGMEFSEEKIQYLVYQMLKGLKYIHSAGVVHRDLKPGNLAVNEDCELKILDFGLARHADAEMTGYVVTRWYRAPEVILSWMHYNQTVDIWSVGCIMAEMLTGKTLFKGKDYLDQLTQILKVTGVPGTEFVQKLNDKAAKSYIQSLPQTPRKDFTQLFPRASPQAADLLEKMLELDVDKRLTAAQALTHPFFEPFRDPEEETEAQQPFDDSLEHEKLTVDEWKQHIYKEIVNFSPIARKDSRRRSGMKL

[2] = target: Platelet-derived growth factor receptor alpha (Homo sapiens) (UniProt P16234); experiment: Inhibition of PDGFRalpha; design: scale not given: the % may be the effect or the level left
[3] = target: Cyclin-dependent kinase 2/cyclin E (Homo sapiens) (UniProt P24864+P24941+O96020); experiment: Inhibition of CDK2/cyclin E; format: protein-complex assay; design: scale not given: the % may be the effect or the level left
Mus musculus = species on record: Mus musculus; experiment: Inhibition of Abl kinase; design: scale not given: the % may be the effect or the level left
[4] = target: RAC-alpha serine/threonine-protein kinase (Homo sapiens) (UniProt P31749); experiment: Inhibition of PKBalpha; design: scale not given: the % may be the effect or the level left
[5] = target: RAC-beta serine/threonine-protein kinase (Homo sapiens) (UniProt P31751); experiment: Inhibition of PKBbeta; design: scale not given: the % may be the effect or the level left
[6] = target: Mitogen-activated protein kinase 10 (Rattus norvegicus) (UniProt P49187); experiment: Inhibition of c-Jun N-terminal kinase 3; design: scale not given: the % may be the effect or the level left
Rattus norvegicus = species on record: Rattus norvegicus; experiment: Inhibition of AMP-activated Protein Kinase; design: scale not given: the % may be the effect or the level left
[7] = target: Ca2+/calmodulin-dependent protein kinase II (CaM kinase II) (Rattus norvegicus) (UniProt P11275+P08413+P15791+P11730); experiment: Inhibition of Calcium/calmodulin-dependent protein kinase type II; format: protein assay; design: scale not given: the % may be the effect or the level left
[8] = target: T2, Protein kinase C alpha type (Homo sapiens, UniProt P17252); experiment: Inhibitory activity of 10 uM compound against protein kinase C-alpha using histone as substrate
[9] = target: Insulin receptor (Homo sapiens) (UniProt P06213); experiment: Inhibition of IR kinase; design: scale not given: the % may be the effect or the level left
[10] = target: T2, Protein kinase C alpha type; experiment: Inhibition of PKCalpha; design: scale not given: the % may be the effect or the level left
[11] = target: Tyrosine-protein kinase Fyn (Homo sapiens) (UniProt P06241); experiment: Inhibition of Fyn protein kinase; design: scale not given: the % may be the effect or the level left
[12] = target: T3, Mitogen-activated protein kinase 12 (Homo sapiens) (UniProt P53778); experiment: Inhibition of Stress activated protein kinase 3; design: scale not given: the % may be the effect or the level left
T3 sequence (whole entry): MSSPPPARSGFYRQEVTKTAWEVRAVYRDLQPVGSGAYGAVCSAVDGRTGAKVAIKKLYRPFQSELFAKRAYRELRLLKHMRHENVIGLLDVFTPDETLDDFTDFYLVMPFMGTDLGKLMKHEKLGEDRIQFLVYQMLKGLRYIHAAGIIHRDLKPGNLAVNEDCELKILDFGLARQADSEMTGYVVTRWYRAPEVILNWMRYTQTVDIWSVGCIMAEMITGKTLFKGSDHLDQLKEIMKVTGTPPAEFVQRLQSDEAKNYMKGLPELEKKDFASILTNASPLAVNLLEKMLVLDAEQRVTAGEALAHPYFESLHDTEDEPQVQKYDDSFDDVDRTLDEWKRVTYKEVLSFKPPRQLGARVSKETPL

Bos taurus = species on record: Bos taurus; experiment: Inhibition of bovine PKA; design: scale not given: the % may be the effect or the level left
[13] = target: T4, Tyrosine-protein kinase ZAP-70 (Homo sapiens) (UniProt P43403); experiment: Inhibition of Zeta-chain (TCR) associated protein kinase 70 kDa (ZAP70); design: scale not given: the % may be the effect or the level left
T4 sequence (whole entry): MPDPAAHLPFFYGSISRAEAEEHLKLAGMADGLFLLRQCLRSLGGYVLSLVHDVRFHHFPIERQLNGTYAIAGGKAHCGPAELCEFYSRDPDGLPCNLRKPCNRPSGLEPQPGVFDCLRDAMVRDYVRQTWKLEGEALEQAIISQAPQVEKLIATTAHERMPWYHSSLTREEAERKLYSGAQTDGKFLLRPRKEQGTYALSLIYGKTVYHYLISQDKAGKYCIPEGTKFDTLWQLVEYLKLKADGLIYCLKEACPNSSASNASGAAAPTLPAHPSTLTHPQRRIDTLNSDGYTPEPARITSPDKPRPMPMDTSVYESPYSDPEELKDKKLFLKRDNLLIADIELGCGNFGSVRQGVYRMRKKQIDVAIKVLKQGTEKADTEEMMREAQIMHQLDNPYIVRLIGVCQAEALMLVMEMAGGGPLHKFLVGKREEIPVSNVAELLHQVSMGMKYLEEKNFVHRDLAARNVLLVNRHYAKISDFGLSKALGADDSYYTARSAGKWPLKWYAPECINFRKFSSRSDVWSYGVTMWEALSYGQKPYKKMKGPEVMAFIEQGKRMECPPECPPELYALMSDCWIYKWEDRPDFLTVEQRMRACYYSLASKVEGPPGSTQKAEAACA

[14] = target: Serine/threonine-protein kinase Chk2 (Homo sapiens) (UniProt O96017); experiment: Inhibition of Serine/threonine-protein kinase Chk2; design: scale not given: the % may be the effect or the level left
[15] = target: Tyrosine-protein kinase Lyn (Mus musculus) (UniProt P25911); experiment: Inhibition of Protein tyrosine kinase Lyn; design: scale not given: the % may be the effect or the level left
[16] = target: Serine/threonine-protein kinase N2 (Homo sapiens) (UniProt Q16513); experiment: Inhibition of compound PRK2; design: scale not given: the % may be the effect or the level left
[17] = target: Cyclin-dependent kinase 2/cyclin A (Homo sapiens) (UniProt P24941+P20248+P78396); experiment: Inhibition of Cyclin-dependent kinase 2-cyclin A; format: protein-complex assay; design: scale not given: the % may be the effect or the level left
[18] = target: Cyclin-dependent kinase 7/ cyclin H (Homo sapiens) (UniProt P51946+P50613); experiment: Inhibition of Cyclin-dependent kinase 7-cyclin H; format: protein-complex assay; design: scale not given: the % may be the effect or the level left
[19] = target: Tyrosine-protein kinase Fes/Fps (Homo sapiens) (UniProt P07332); experiment: Inhibition of Fes kinase; design: scale not given: the % may be the effect or the level left
[20] = target: CDK6/cyclin D3 (Homo sapiens) (UniProt P30281+Q00534); experiment: Inhibition of Cyclin-dependent kinase 6-cyclin D3; format: protein-complex assay; design: scale not given: the % may be the effect or the level left
[21] = target: T5, Dual specificity mitogen-activated protein kinase kinase 4 (Mus musculus) (UniProt P47809); experiment: Inhibition of Mitogen activated protein kinase kinase 4; design: scale not given: the % may be the effect or the level left
T5 sequence (whole entry): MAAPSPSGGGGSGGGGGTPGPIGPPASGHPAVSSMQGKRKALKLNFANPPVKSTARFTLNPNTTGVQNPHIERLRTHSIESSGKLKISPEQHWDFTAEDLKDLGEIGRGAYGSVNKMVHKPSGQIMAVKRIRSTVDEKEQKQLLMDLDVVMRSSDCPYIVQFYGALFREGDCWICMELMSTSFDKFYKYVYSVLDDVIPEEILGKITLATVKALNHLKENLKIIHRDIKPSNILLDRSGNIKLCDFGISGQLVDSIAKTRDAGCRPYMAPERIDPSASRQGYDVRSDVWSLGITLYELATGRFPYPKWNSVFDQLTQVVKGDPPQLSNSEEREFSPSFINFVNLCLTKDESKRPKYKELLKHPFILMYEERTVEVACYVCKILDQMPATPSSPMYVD

Chain of Serine/threonine-protein kinase Chk2 (Homo sapiens) (O96017 whole entry): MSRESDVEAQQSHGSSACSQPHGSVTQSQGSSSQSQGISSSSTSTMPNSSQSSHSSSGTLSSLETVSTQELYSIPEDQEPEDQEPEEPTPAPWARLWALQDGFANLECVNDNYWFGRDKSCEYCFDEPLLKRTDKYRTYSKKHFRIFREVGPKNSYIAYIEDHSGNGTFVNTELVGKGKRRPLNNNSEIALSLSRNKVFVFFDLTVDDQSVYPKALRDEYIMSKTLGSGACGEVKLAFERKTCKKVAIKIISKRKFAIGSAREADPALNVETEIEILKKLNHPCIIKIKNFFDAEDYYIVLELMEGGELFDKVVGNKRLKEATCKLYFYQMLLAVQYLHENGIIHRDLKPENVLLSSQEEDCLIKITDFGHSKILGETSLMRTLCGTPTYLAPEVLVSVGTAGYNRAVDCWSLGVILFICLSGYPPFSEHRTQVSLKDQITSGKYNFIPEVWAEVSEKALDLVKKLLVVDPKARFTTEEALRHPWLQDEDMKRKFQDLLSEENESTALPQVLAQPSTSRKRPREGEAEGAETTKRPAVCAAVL
Chain of RAC-alpha serine/threonine-protein kinase (Homo sapiens) (P31749 whole entry): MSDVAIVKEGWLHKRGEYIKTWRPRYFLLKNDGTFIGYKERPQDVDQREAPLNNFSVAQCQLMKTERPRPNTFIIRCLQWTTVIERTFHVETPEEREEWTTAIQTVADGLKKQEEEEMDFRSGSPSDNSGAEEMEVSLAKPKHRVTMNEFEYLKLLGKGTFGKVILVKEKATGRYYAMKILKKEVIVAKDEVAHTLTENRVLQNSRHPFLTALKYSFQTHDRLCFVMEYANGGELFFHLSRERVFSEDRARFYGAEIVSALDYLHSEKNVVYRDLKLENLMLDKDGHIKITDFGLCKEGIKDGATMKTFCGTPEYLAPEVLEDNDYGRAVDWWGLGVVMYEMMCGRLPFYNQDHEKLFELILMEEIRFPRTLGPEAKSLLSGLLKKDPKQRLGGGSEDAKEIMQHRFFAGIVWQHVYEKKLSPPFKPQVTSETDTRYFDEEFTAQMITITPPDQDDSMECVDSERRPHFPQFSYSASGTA
Chain of Platelet-derived growth factor receptor alpha (Homo sapiens) (P16234 whole entry): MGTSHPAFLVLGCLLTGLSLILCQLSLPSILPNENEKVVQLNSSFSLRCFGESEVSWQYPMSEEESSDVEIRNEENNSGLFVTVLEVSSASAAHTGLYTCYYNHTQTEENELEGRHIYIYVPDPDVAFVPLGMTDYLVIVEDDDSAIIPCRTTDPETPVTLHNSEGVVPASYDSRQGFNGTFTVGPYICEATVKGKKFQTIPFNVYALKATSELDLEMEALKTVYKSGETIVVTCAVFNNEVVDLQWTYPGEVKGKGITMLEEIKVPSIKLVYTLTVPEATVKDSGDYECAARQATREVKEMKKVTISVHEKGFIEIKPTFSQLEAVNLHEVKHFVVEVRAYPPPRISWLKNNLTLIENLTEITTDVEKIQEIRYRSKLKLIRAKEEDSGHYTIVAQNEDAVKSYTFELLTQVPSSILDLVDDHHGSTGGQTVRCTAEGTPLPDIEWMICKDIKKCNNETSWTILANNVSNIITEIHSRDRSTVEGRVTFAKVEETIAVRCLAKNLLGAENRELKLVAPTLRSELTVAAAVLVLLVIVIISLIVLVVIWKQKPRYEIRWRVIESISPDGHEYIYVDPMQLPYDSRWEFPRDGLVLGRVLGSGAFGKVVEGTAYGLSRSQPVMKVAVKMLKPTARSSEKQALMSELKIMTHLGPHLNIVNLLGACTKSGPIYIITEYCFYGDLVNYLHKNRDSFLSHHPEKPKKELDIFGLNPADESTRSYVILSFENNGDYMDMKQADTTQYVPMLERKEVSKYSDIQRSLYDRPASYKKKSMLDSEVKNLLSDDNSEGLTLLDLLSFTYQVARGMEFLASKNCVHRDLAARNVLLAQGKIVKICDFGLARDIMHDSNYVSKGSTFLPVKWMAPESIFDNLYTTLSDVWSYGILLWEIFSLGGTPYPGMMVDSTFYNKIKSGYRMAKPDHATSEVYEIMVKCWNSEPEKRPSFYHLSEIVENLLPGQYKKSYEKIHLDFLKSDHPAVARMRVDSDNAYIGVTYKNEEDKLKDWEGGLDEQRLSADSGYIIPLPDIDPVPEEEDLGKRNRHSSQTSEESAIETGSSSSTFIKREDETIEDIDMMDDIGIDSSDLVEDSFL
Chain of RAC-beta serine/threonine-protein kinase (Homo sapiens) (P31751 whole entry): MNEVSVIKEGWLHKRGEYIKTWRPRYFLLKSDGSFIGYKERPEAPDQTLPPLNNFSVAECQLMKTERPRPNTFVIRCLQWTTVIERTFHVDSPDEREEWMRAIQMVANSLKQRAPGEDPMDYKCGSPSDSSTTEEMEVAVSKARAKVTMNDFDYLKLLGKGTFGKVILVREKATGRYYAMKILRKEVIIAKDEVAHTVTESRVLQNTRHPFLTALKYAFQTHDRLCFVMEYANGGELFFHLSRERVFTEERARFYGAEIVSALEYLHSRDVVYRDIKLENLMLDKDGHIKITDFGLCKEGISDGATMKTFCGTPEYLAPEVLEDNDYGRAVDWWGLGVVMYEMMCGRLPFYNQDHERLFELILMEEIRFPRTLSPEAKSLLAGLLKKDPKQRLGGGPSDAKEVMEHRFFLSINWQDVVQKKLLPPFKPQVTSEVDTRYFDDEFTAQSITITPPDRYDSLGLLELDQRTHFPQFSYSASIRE
Chain of Insulin receptor (Homo sapiens) (P06213 28-758 limits assumed): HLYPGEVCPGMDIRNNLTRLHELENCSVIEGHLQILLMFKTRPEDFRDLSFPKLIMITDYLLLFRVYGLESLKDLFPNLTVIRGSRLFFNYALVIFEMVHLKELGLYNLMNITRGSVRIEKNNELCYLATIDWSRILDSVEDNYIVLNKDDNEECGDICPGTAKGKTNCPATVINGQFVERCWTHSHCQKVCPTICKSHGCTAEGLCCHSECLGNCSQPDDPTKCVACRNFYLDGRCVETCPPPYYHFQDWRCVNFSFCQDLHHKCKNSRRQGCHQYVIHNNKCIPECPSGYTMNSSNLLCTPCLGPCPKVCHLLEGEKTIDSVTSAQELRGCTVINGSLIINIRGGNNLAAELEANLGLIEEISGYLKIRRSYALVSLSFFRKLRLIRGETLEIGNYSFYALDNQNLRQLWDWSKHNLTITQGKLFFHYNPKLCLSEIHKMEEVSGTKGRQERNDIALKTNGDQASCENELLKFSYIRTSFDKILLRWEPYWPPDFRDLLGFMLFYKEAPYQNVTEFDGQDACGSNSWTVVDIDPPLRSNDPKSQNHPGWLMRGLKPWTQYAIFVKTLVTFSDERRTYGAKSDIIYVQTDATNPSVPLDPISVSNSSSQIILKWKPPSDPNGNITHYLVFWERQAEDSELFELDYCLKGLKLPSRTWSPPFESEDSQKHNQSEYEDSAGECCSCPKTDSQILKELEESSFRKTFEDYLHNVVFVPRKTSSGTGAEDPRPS
Chain of Insulin receptor (Homo sapiens) (P06213 763-1382 limits assumed): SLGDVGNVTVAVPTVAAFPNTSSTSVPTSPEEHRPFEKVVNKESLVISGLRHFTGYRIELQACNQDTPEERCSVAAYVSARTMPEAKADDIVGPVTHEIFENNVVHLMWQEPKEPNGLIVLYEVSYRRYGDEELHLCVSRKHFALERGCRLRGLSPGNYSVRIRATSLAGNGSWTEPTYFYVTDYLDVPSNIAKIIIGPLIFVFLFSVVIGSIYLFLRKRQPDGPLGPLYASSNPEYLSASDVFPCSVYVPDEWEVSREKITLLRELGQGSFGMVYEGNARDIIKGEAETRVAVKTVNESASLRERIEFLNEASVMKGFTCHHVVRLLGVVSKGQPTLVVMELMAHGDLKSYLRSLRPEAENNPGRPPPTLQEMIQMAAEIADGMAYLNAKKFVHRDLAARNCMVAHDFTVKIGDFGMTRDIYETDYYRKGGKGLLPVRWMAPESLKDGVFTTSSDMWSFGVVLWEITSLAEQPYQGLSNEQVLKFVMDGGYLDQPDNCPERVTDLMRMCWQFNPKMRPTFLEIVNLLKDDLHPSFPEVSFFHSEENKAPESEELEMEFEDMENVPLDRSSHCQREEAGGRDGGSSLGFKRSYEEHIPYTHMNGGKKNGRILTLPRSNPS

Activity [1] | Activity [2] | Activity [3] | Activity (Mus musculus) | Activity [4] | Activity [5] | Activity [6] | Activity (Rattus norvegicus) | Activity [7] | inhibition [8] | Activity [9] | Activity [10] | Activity [11] | Activity [12] | Activity (Bos taurus) | Activity [13] | Activity [14] | Activity [15] | Activity [16] | Activity [17] | Compound | further results
86% | 86% | 30% | 93% | 64% | 69% | 76% | 74% | 76% | < 50% | 95% | 70% | 89% | 86% | 86% | 91% | 92% | 85% | 71% | 25% | O=C1NC(=O)C(c2cn(CCCO)c3ncccc23)=C1c1ncc(C(F)(F)F)cc1Cl | Activity [18]: 59%; Activity [19]: 81%; Activity [20]: 59%; Activity [21]: 87%
97% | 99% | 11% | 86% | 93% | 82% | 52% | 68% | 63% | < 50% | 88% | 46% | 94% | 120% | 99% | 100% | 75% | 81% | 76% | 9% | COCCCn1cc(C2=C(c3ccccc3O)C(=O)NC2=O)c2cccnc21 | Activity [18]: 47%; Activity [19]: 79%; Activity [20]: 50%; Activity [21]: 86%
100% | 108% | 3% | 91% | 103% | 99% | 68% | 64% | 60% | < 50% | 94% | 38% | 63% | 122% | 112% | 112% | 49% | 20% | 68% | 2% | COc1ccccc1C1=C(c2cn(CCCNC(=O)OC(C)(C)C)c3ncccc23)C(=O)NC1=O | Activity [18]: 60%; Activity [19]: 87%; Activity [20]: 24%; Activity [21]: 101%
